Data set [1] deals with Trypanosoma cruzi. The data set is described as follows: Antiparasitic activity against Trypanosoma cruzi at 10 uM. It counts as functional.
For data set [2], the system named is Trypanosoma brucei. The data set is described as follows: Antiparasitic activity against Trypanosoma brucei after 48 hrs by cytometry. In kind it is functional, organism-based.
Data set [3] relates to Leishmania major. Put plainly: Antiparasitic activity against Leishmania major amastigotes. It counts as functional, organism-based. The settings on record: Leishmania major; read-out: EC50.
Data set [4] in a line: (§1) Cytotoxicity against human HepG2 cells by MTT assay. In kind it is cell-based. Particulars: HepG2 cells, read-out: TC50 (the source's name). (In general: Formazan colour is commonly taken as a measure of viable cells.)
For data set [5], the system named is Leishmania major. Put plainly: Antiparasitic activity against Leishmania major promastigotes. It counts as functional, organism-based. Particulars: Leishmania major; read-out: EC50.
The next data set relates to Plasmodium falciparum. Put plainly: Antiparasitic activity against Plasmodium falciparum D6. The settings on record: Plasmodium falciparum, D6; read-out: EC50. It counts as functional, organism-based.
For data set [6], the system named is Trypanosoma brucei brucei. Put plainly: Antiparasitic activity against bloodstream Trypanosoma brucei bruei CA427 after 48 hrs by cytometry. In kind it is functional, organism-based. Particulars: CA427, 48 h.
The subject of data set [7] is Trypanosoma brucei. Put plainly: Antiparasitic activity against Trypanosoma brucei at 5 uM after 48 hrs by cytometry. In kind it is functional.
A short description of data set [8]: Selectivity ratio, ratio of EC50 for Plasmodium falciparum C235 to EC50 for Plasmodium falciparum D6. In kind it is functional.
Data set [9] can be described thus: Selectivity ratio, ratio of EC50 for Plasmodium falciparum W2 to EC50 for Plasmodium falciparum D6. In kind it is functional.
For the next data set, the system named is HepG2. The description is as §1. Particulars: hepg2. In kind it is cell-based.
Data set [10] concerns Trypanosoma cruzi. Put plainly: Antiparasitic activity against Trypanosoma cruzi. It counts as functional, organism-based.
Data set [11] can be described thus: Metabolic stability in human microsomes. It counts as ADME, Microsome.
Data set [12] is described as follows: Aqueous solubility of compound. In kind it is physicochemical. The settings on record: buffer.
Data set [13] is described as follows: Plasma protein binding in human. In kind it is ADME, cell-free.
Data set [14] can be described thus: Metabolic stability in rat Hepatocytes. In kind it is ADME, cell-based, Hepatocyte.

From ChEMBL document CHEMBL3734677, “EVALUATION OF AROMATIC 6-SUBSTITUTED THIENOPYRIMIDINES AS SCAFFOLDS AGAINST PARASITES THAT CAUSE TRYPANOSOMIASIS, LEISHMANIASIS, AND MALARIA” (Medchemcomm, 2015) come the findings set out here.

What is called inhibition is the drop in the measured response relative to a control, in per cent. The term EC50 denotes the midpoint of the concentration-response curve. Turning to `Fc1cccc(COc2ccc(Nc3ncnc4ccc(-c5ccc(N6CCOCC6)cc5)cc34)cc2Cl)c1`, the inhibition at 10 µM with Trypanosoma cruzi [1] amounted to 10.1%. Further, the 50% effective concentration (EC50) with Trypanosoma brucei [2] was 1.9 µM; in the data set with Leishmania major [3] it was greater than 15 µM; in the data set on Leishmania major [5], 4.4 µM; in the data set with Plasmodium falciparum, 0.27 µM. The CC50 in [4] came out at 9.6 µM.

`Fc1cccc(COc2ccc(Nc3ncnc4cc(C#C[C@@H]5CCCN5)sc34)cc2Cl)c1` registered an EC50 in [6] of 0.26 µM.

In the case of `Fc1cccc(COc2ccc(Nc3ncnc4sc(-c5ccccc5)cc34)cc2Cl)c1`, at 10 µM the inhibition with Trypanosoma cruzi [1] was 42%. Besides, the concentration for a half-maximal effect (EC50) with Trypanosoma brucei [2] is 1.7 µM; with Leishmania major [3] it was greater than 15 µM; with Leishmania major [5], greater than 20 µM; with Plasmodium falciparum, greater than 20 µM. Besides, the CC50 in data set [4] amounted to 10 µM.

`Fc1cccc(COc2ccc(Nc3ncnc4sc(-c5ccc(CN6CCOCC6)cc5)cc34)cc2Cl)c1` displayed an inhibition at 5 µM with Trypanosoma brucei [7] of 60%. Also, the Ratio EC50 in [8] and in data set [9] was less than 3 throughout. In addition, the EC50 was 4.2 µM with Leishmania major [3], greater than 20 µM with Leishmania major [5], 1.7 µM in the data set on Trypanosoma cruzi [10] and 0.089 µM in the data set on Plasmodium falciparum. Further, in the data set on HepG2, the Activity entry is listed as “Non-toxic”.

Turning to `Fc1cccc(COc2ccc(Nc3ncnc4ccc(-c5ccc(CN6CCOCC6)cc5)cc34)cc2Cl)c1`, the Ratio EC50 in data set [8] and in data set [9] was less than 3 each time. Moreover, the EC50 with Trypanosoma brucei [2] is 1 µM; with Leishmania major [3], 5.91 µM; in the data set with Leishmania major [5], 2.74 µM; in the data set with Trypanosoma cruzi [10], 0.6 µM; in the data set on Plasmodium falciparum, 0.063 µM. For the same molecule, the CC50 in data set [4] was 12.9 µM.

By solubility is commonly meant the dissolved amount per volume that the medium holds. As for `Fc1cccc(COc2ccc(Nc3ncnc4ccc(-c5cccc(N6CCOCC6)c5)cc34)cc2Cl)c1`, the Stability entry in data set [11] and in [14] was “Stable” in each case. Also, the solubility in data set [12] was less than 1 µM. For the same molecule, the EC50 with Leishmania major [3] came out at 7.98 µM. This molecule also displayed a PPB in data set [13] greater than 99%. Besides, the Activity result with HepG2 was “Non-toxic”.

With `CS(=O)(=O)CCNCc1ccc(-c2ccc3ncnc(Nc4ccc(OCc5cccc(F)c5)c(Cl)c4)c3c2)o1` [LAPATINIB], in [4], the CC50 was greater than 35 µM.

`Fc1cccc(COc2ccc(Nc3ncnc4ccc(-c5ccccc5)cc34)cc2Cl)c1`: the concentration for a half-maximal effect (EC50) is 3.9 µM in the data set with Trypanosoma brucei [2]; greater than 15 µM in the data set on Leishmania major [3]; 4.05 µM in the data set on Leishmania major [5]; 1.8 µM in the data set with Trypanosoma cruzi [10]; 0.79 µM in the data set with Plasmodium falciparum. Moreover, the CC50 in [4] was 4.9 µM.

For `Cc1cc(-c2cc3ncnc(Nc4ccc(OCc5cccc(F)c5)c(Cl)c4)c3s2)cnc1N1CCOCC1`, the Stability entry in data set [11] and in [14] was “Stable” throughout. Moreover, in data set [12], the solubility was less than 1 µM. In addition, the Ratio EC50 in data set [8] and in data set [9] was less than 3 throughout. Also, the EC50 in the data set with Trypanosoma brucei [2] is 0.084 µM; in the data set with Leishmania major [3], greater than 3 µM; in the data set on Leishmania major [5] it was greater than 3 µM; in the data set on Trypanosoma cruzi [10] it was 3.3 µM; with Plasmodium falciparum, 0.23 µM. In [13], this molecule yielded a PPB greater than 99%. The Activity entry in the data set with HepG2 was “Non-toxic”.

On to `Fc1cccc(COc2ccc(Nc3ncnc4cc(-c5cc6ccccc6s5)sc34)cc2Cl)c1`, for which the inhibition at 5 µM in the data set with Trypanosoma brucei [7] came out at 8%. For the same molecule, the 50% effective concentration (EC50) with Leishmania major [3] was greater than 15 µM; in the data set on Leishmania major [5] it was greater than 20 µM; in the data set with Trypanosoma cruzi [10], greater than 50 µM; in the data set with Plasmodium falciparum it was greater than 15 µM. Besides, in the data set with HepG2, the Activity entry is reported as “Non-toxic”.
